From patent publication US9884828B2, “Substituted cinnolines as inhibitors of LRRK2 kinase activity” (Imago Pharmaceuticals, Inc., priority 2011, dated 2018)

Target: recombinant GST-LRRK2 (wild-type) (Homo sapiens (Human), UniProt Q5S007)
Assay: LRRK2 TR-FRET peptide assay (in vitro kinase activity), wild-type
Type: biochemical
Conditions: 100 μM ATP, 100 nM biotin-LRRKtide substrate, 10 nM kinase, 60 minutes at room temperature
How it was run: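 Recombinant GST-LRRK2 wild-type pre-incubated with serially diluted compound in 1% DMSO for 15 min at room temperature, with kinase activity read by TR-FRET using a peptide substrate. IC50 derived from eight-point dose-response curves, with inhibition normalized to the plate's control and background wells.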

recombinant GST-LRRK2 (wild-type), sequence (Q5S007 whole entry): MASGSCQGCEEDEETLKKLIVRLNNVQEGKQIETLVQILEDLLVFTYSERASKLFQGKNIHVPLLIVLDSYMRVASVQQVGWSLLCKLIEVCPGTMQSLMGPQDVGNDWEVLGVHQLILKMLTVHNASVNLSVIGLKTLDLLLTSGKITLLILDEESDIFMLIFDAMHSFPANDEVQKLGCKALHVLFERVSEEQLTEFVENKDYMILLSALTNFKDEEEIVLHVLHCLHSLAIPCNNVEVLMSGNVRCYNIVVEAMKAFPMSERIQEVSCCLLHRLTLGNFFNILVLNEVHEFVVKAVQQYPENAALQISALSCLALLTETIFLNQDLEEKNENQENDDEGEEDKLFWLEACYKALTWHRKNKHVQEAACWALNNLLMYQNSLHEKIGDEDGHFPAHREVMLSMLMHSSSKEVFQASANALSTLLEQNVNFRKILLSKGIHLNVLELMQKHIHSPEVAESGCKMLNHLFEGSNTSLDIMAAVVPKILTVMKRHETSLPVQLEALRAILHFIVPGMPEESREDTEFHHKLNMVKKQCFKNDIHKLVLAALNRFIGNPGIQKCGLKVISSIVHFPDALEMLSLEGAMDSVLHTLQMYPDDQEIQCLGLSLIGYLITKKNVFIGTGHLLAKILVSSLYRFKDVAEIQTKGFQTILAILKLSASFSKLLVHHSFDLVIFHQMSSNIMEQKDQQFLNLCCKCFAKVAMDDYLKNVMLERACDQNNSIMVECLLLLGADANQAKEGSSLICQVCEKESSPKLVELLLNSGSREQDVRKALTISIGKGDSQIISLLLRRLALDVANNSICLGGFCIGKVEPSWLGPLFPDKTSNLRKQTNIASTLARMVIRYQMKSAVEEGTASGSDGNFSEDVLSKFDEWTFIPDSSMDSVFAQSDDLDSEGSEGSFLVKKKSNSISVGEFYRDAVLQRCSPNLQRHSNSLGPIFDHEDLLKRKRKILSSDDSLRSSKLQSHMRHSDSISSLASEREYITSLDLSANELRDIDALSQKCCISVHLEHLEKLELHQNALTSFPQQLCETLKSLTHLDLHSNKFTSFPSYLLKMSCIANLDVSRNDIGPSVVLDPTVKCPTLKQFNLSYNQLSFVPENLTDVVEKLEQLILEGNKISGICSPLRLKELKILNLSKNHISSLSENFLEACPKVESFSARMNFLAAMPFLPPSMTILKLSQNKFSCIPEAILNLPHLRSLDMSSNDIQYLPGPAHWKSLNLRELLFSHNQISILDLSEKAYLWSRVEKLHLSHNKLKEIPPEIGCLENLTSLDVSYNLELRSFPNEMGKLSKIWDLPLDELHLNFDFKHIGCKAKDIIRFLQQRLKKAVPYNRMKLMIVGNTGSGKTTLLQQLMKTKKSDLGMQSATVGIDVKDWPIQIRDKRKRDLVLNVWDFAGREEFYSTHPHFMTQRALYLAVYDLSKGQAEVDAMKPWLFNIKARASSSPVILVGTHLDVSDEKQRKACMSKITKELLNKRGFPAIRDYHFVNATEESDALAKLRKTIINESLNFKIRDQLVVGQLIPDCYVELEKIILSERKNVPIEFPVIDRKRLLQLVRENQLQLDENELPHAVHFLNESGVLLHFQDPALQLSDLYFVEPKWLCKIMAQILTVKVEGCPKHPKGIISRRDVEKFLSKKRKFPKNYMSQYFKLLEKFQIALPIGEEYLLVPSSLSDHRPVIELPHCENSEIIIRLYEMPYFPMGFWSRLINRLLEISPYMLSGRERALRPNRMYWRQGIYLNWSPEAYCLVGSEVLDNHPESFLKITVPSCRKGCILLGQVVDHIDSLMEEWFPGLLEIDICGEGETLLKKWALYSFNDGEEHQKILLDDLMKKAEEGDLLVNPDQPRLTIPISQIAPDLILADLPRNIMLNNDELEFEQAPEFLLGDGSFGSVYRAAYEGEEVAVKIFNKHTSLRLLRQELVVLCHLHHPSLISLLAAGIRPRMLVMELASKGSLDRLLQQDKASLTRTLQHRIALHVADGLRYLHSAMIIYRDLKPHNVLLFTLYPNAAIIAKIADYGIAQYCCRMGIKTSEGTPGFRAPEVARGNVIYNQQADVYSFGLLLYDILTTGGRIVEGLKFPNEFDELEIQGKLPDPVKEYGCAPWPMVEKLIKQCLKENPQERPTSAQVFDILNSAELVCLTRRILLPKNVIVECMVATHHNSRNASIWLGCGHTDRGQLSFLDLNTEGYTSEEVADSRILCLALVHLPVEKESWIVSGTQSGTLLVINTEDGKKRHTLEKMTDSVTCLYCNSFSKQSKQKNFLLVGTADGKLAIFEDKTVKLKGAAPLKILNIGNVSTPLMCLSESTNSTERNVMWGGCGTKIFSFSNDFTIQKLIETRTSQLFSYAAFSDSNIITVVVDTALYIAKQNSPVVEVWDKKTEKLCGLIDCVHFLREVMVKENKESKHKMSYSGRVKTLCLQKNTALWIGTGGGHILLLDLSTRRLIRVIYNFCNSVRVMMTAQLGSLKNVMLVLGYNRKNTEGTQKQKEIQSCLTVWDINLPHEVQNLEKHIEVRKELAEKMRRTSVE

| Compound | IC50 |
| --- | --- |
| COc1cc(-c2nccnc2OC)ccc1-c1ccc2c(N[C@H](C)C3CC3)c(C(N)=O)nnc2c1 [Compound 11-220, (R)-4-(1-cyclopropylethylamino)-7-(2-methoxy-4-(3-methoxypyrazin-2-yl)phenyl)cinnoline-3-carboxamide] | 25 nM |
| COc1cc(-c2nccn2C)ccc1-c1ccc2c(N[C@H](C)C3CC3)c(C(N)=O)nnc2c1 [Compound 11-221, (R)-4-(1-cyclopropylethylamino)-7-(2-methoxy-4-(1-methyl-1H-imidazol-2-yl)phenyl)cinnoline-3-carboxamide] | 9 nM |
| CNC(=O)c1nnc2cc(-c3ccc(S(C)(=O)=O)cc3)ccc2c1NC(C)C [Compound 12-227, 4-(Isopropylamino)-N-methyl-7-(4-(methylsulfonyl)phenyl)cinnoline-3-carboxamide] | 410 nM |
| CNC(=O)c1nnc2cc(-c3ccc(S(C)(=O)=O)cc3)ccc2c1NC [Compound 12-229, N-methyl-4-(methylamino)-7-(4-(methylsulfonyl)phenyl)cinnoline-3-carboxamide] | > 1000 nM |
| CNC(=O)c1nnc2cc(-c3ccc(S(C)(=O)=O)cc3)ccc2c1N[C@H](C)C1CC1 [Compound 12-231, (R)-4-(1-cyclopropylethylamino)-N-methyl-7-(4-(methylsulfonyl)phenyl)cinnoline-3-carboxamide] | 170 nM |
| CC(C)Nc1c(-c2ncc[nH]2)nnc2cc(-c3ccc(S(C)(=O)=O)cc3)ccc12 [Compound 13-233, 3-(1H-imidazol-2-yl)-N-isopropyl-7-(4-(methylsulfonyl)phenyl)cinnolin-4-amine] | 51 nM |
| C=C(C)c1ccc2c(N[C@H](C)C3CC3)c(C(=O)NC)nnc2c1 [Compound 14-235, (R)-4-(1-cyclopropylethylamino)-N-methyl-7-(prop-1-en-2-yl)cinnoline-3-carboxamide] | 1600 nM |
| CNC(=O)c1nnc2cc(C3CC3)ccc2c1N[C@H](C)C1CC1 [Compound 14-236, (R)-7-cyclopropyl-4-(1-cyclopropylethylamino)-N-methylcinnoline-3-carboxamide] | 1950 nM |
